Biological target: prolyl 4-hydroxylase (collagen, EC 1.14.11.2)
Experiment: Inhibition of prolyl 4-hydroxylase by chromatographic determination of [14C]-succinic acid on ion-exchange minicolumna

| IC50 | Compound |
| --- | --- |
| 5040 nM | O=C(NS(=O)(=O)c1ccccc1)c1ccc(-c2ccc(C(=O)NS(=O)(=O)c3ccccc3)cn2)nc1 [3-phenylsulfonamidocarbonyl-6-(5-phenylsulfonamidocarbonyl-2-pyridyl)pyridine] |
| 320 nM | CCOc1ccc(NC(=O)c2ccc(-c3ccc(C(=O)O)cn3)nc2)cc1 [5'-(4-Ethoxy-phenylcarbamoyl)-[2,2']bipyridinyl-5-carboxylic acid] |

— BindingDB's records for doi:10.1021/jm00076a014 (Zeneca Pharmaceuticals, 1994)
